molecular target: His-Tagged hOGA (human O-GlcNAcase) (Homo sapiens (Human), UniProt O60502); assay: Human O-GlcNAcase enzyme inhibition assay (Example B01); assay type: biochemical; conditions: OGA IC50 (M), OGA enzyme inhibition assay; activity range classes defined in μM
Sequence (O60502 whole entry): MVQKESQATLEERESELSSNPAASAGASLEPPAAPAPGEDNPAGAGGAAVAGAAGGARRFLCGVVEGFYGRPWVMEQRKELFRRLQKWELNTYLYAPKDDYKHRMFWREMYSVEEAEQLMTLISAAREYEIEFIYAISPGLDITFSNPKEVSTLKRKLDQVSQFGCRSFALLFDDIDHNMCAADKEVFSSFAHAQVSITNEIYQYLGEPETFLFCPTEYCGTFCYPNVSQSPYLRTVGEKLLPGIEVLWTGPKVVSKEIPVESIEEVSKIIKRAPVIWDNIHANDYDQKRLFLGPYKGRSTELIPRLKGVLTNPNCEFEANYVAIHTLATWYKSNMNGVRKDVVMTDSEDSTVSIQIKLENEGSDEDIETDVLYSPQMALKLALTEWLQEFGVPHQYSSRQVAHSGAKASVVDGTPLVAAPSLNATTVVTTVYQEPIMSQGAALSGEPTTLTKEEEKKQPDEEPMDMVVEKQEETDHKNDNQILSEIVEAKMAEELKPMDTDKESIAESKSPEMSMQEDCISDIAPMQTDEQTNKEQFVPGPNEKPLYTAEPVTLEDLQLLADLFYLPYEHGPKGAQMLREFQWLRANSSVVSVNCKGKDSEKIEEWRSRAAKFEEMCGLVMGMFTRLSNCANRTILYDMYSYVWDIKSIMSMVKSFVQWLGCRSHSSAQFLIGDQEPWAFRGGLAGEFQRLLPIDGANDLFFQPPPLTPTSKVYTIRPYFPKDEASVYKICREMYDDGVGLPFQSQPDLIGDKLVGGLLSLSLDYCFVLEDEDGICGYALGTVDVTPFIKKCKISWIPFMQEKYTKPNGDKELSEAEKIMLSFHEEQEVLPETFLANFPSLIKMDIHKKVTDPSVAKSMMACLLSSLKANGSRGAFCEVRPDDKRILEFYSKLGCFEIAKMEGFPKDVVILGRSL

| Structure (SMILES) | IC50 [M] |
| --- | --- |
| CC(c1ccc2c(c1)OCO2)N1CCN(c2ncc(C(=O)N(C)C)s2)CC1 (racemic) [Example 47, 2-(4-(1-(Benzo[d](1,3)dioxol-5-yl)ethyl)piperazin-1-yl)-N,N-dimethylthiazole-5-carboxamide] | 5e-08 to 2e-07 |
| CC(=O)Nc1cnc(N2CCN(C(C)c3ccc4c(c3)OCO4)CC2)nc1 (racemic) [Example 72, N-(2-(4-(1-(benzo[d][1,3]dioxol-5-yl)ethyl)piperazin-1-yl)pyrimidin-5-yl)acetamide] | < 5e-08 |
| CC(c1ccc2cccnc2c1)N1CCN(c2ncccn2)CC1 (racemic) [Example 91, 7-(1-(4-(pyrimidin-2-yl)piperazin-1-yl)ethyl)quinoline] | 5e-08 to 2e-07 |

same assay, conditions: OGA enzyme inhibition assay; activity range classes defined in μM; read-out: OGA IC50

| IC50 [M] | Structure (SMILES) |
| --- | --- |
| < 5e-08 | Cc1ncc(N2CCN(C(C)c3ccc4c(c3)OCO4)CC2)s1 (racemic) [Example 37, 5-(4-(1-(Benzo[d][1,3]dioxol-5-yl)ethyl)piperazin-1-yl)-2-methylthiazole] |
| 5e-08 to 2e-07 | CC(c1ccc2c(c1)OCO2)N1CCN(c2ncc(Cl)cn2)CC1 (racemic) [Example 38] |
| 5e-08 to 2e-07 | COc1ccnc(N2CCN(C(C)c3ccc4c(c3)OCO4)CC2)n1 (racemic) [Example 39, 2-(4-(1-(Benzo[d][1,3]dioxol-5-yl)ethyl)piperazin-1-yl)-4-methoxypyrimidine] |
| 5e-08 to 2e-07 | CC(c1ccc2c(c1)OCO2)N1CCN(c2ccnc(Cl)n2)CC1 (racemic) [Example 40, 4-(4-(1-(Benzo[d][1,3]dioxol-5-yl)ethyl)piperazin-1-yl)-2-chloropyrimidine] |
| 5e-08 to 2e-07 | CC(c1ccc2c(c1)OCO2)N1CCN(c2nnc(N)s2)CC1 (racemic) [Example 41, 5-(4-(1-(benzo[d][1,3]dioxol-5-yl)ethyl)piperazin-1-yl)-1,3,4-thiadiazol-2-amine] |
| 2e-07 to 1e-06 | CC(c1ccc2c(c1)OCO2)N1CCN(c2nc(C(=O)N(C)C)cs2)CC1 (racemic) [Example 42, 2-(4-(1-(benzo[d][1,3]dioxol-5-yl)ethyl)piperazin-1-yl)-N,N-dimethylthiazole-4-carboxamide] |
| 5e-08 to 2e-07 | CC(C)NC(=O)c1cnc(N2CCN(C(C)c3ccc4c(c3)OCO4)CC2)s1 (racemic) [Example 43, 2-(4-(1-(Benzo[d][1,3]dioxol-5-yl)ethyl)piperazin-1-yl)-N-isopropylthiazole-5-carboxamide] |
| 2e-07 to 1e-06 | CCCNc1ccnc(N2CCN(C(C)c3ccc4c(c3)OCO4)CC2)n1 (racemic) [Example 45, 2-(4-(1-(Benzo[d][1,3]dioxol-5-yl)ethyl)piperazin-1-yl)-N-propylpyrimidin-4-amine] |
| 5e-08 to 2e-07 | CC(c1ccc2c(c1)OCO2)N1CCN(c2ccnc(N)n2)CC1 (racemic) [Example 46, 4-(4-(1-(Benzo[d][1,3]dioxol-5-yl)ethyl)piperazin-1-yl)pyrimidin-2-amine] |
| < 5e-08 | CC(c1ccc2c(c1)OCO2)N1CCN(c2ncc(C(N)=O)s2)CC1 (racemic) [Example 48, 2-(4-(1-(Benzo[d](1,3)dioxol-5-yl)ethyl)piperazin-1-yl)thiazole-5-carboxamide] |
| 2e-07 to 1e-06 | CC(c1ccc2c(c1)OCCO2)N1CCN(c2nc(C(N)=O)cs2)CC1 (racemic) [Example 49, 2-(4-(1-(2,3-Dihydrobenzo[b][1,4]dioxin-6-yl)ethyl)piperazin-1-yl)thiazole-4-carboxamide] |
| 5e-08 to 2e-07 | CNC(=O)c1csc(N2CCN(C(C)c3ccc4c(c3)OCCO4)CC2)n1 (racemic) [Example 50, 2-(4-(1-(2,3-dihydrobenzo[b][1,4]dioxin-6-yl)ethyl)piperazin-1-yl)-N-methylthiazole-4-carboxamide] |
| 5e-08 to 2e-07 | CCOC(=O)c1cnc(N2CCN(C(C)c3ccc4c(c3)OCO4)CC2)nc1 (racemic) [Example 51, Ethyl 2-(4-(1-(benzo[d][1,3]dioxol-5-yl)ethyl)piperazin-1-yl)pyrimidine-5-carboxylate] |
| < 5e-08 | CC(c1ccc2c(c1)OCO2)N1CCN(c2ncc(CO)cn2)CC1 (racemic) [Example 52, (2-(4-(1-(benzo[d][1,3]dioxol-5-yl)ethyl)piperazin-1-yl)pyrimidin-5-yl)methanol] |
| 2e-07 to 1e-06 | CC(c1ccc2c(c1)CCO2)N1CCN(c2ncccn2)CC1 (racemic) [Example 53, 2-(4-(1-(2,3-dihydrobenzofuran-5-yl)ethyl)piperazin-1-yl)pyrimidine] |
| 5e-08 to 2e-07 | CC(=O)Nc1nccc(N2CCN(C(C)c3ccc4c(c3)OCO4)CC2)n1 (racemic) [Example 54, N-(4-(4-(1-(Benzo[d][1,3]dioxol-5-yl)ethyl)piperazin-1-yl)pyrimidin-2-yl)acetamide] |
| 5e-08 to 2e-07 | CC(c1ccc2c(c1)OCO2)N1CCN(c2ccc(N)cn2)CC1 (racemic) [Example 58, 6-(4-(1-(Benzo[d][1,3]dioxol-5-yl)ethyl)piperazin-1-yl)pyridin-3-amine] |
| 5e-08 to 2e-07 | CC(c1ccc2c(c1)OCO2)N1CCN(c2ncc(C(=O)N3CCOCC3)s2)CC1 (racemic) [Example 67, (2-(4-(1-(Benzo[d][1,3]dioxol-5-yl)ethyl)piperazin-1-yl)thiazol-5-yl)(morpholino)methanone] |
| 2e-07 to 1e-06 | CC(c1ccc2c(c1)OCO2)N1CCN(c2ncc(N)cn2)CC1 (racemic) [Example 70, 2-(4-(1-(Benzo[d][1,3]dioxol-5-yl)ethyl)piperazin-1-yl)pyrimidin-5-amine] |
| 5e-08 to 2e-07 | CC(c1ccc2c(c1)OCCO2)N1CCN(c2ncc(C(=O)N3CCC(O)CC3)s2)CC1 (racemic) [Example 73, (2-(4-(1-(2,3-Dihydrobenzo[b][1,4]dioxin-6-yl)ethyl)piperazin-1-yl)thiazol-5-yl)(4-hydroxypiperidin-1-yl)methanone] |
| 1e-06 to 1e-05 | CC(=O)Nc1nnc(N2CCN(C(C)c3ccc(F)c(F)c3)CC2)s1 (racemic) [Example 76, N-(5-(4-(1-(3,4-difluorophenyl)ethyl)piperazin-1-yl)-1,3,4-thiadiazol-2-yl)acetamide] |
| 5e-08 to 2e-07 | CC(c1ccc2c(c1)OCO2)N1CCN(c2ncc(CN3CCOCC3)s2)CC1 (racemic) [Example 79, 4-((2-(4-(1-(Benzo[d][1,3]dioxol-5-yl)ethyl)piperazin-1-yl)thiazol-5-yl)methyl)morpholine] |
| < 5e-08 | CC(=O)N(C)Cc1cnc(N2CCN(C(C)c3ccc4c(c3)OCO4)CC2)s1 (racemic) [Example 80, N-((2-(4-(1-(benzo[d][1,3]dioxol-5-yl)ethyl)piperazin-1-yl)thiazol-5-yl)methyl)-N-methylacetamide] |
| 5e-08 to 2e-07 | CC(c1ccc2nccnc2c1)N1CCN(c2ncccn2)CC1 (racemic) [Example 83, 6-(1-(4-(pyrimidin-2-yl)piperazin-1-yl)ethyl)quinoxaline] |
| < 5e-08 | CC(=O)Nc1ncc(N2CCN(C(C)c3ccc4c(c3)OCO4)CC2)s1 (racemic) [Example 86, N-(5-(4-(1-(benzo[d][1,3]dioxol-5-yl)ethyl)piperazin-1-yl)thiazol-2-yl)acetamide] |
| 2e-07 to 1e-06 | CCOC(=O)c1cnc(N2CCN(C(C)c3ccc4nccnc4c3)CC2)s1 (racemic) [Example 90, Ethyl-2-(4-(1-(quinoxalin-6-yl)ethyl)piperazin-1-yl)thiazole-5-carboxylate] |

same assay, conditions: measured according to Example B01

| OGA inhibitor activity (in words) | Structure (SMILES) |
| --- | --- |
| very potent OGA inhibitors | Cc1ncc(N2CCN(C(C)c3ccc4c(c3)OCO4)CC2)s1 (racemic) [Example 37, 5-(4-(1-(Benzo[d][1,3]dioxol-5-yl)ethyl)piperazin-1-yl)-2-methylthiazole] |
| very potent OGA inhibitors | CC(c1ccc2c(c1)OCO2)N1CCN(c2ncc(C(N)=O)s2)CC1 (racemic) [Example 48, 2-(4-(1-(Benzo[d](1,3)dioxol-5-yl)ethyl)piperazin-1-yl)thiazole-5-carboxamide] |
| very potent OGA inhibitors | CC(c1ccc2c(c1)OCO2)N1CCN(c2ncc(CO)cn2)CC1 (racemic) [Example 52, (2-(4-(1-(benzo[d][1,3]dioxol-5-yl)ethyl)piperazin-1-yl)pyrimidin-5-yl)methanol] |

| Structure (SMILES) | OGA inhibitor activity (in words) |
| --- | --- |
| CC(=O)Nc1cnc(N2CCN(C(C)c3ccc4c(c3)OCO4)CC2)nc1 (racemic) [Example 72, N-(2-(4-(1-(benzo[d][1,3]dioxol-5-yl)ethyl)piperazin-1-yl)pyrimidin-5-yl)acetamide] | very potent OGA inhibitors |

Source: patent publication US10336775B2 (Asceneuron SA, priority 2014, dated 2019)
